Measured values as given in patent publication US20140350273A1, “PEDIATRIC USES OF CABAZITAXEL” (AVENTIS PHARMA S.A., priority 2012, published 2014).
Like-named read-outs stand apart in the source and are kept apart here.

System: human rhabdomyosarcoma RH-30
Type: in vivo
Settings: for Average body weight change in % per mouse at nadir / Drug death (Day of death) / Regressions Complete / Regressions Partial / Tumor free survivors at day 120 / day of nadir / ΔT/ΔC in % (day 27) / Biological interpretation: 18
Procedure: This efficacy may be quantified, for example, as changes in tumor volume for each treated (T) and control (C) group, which are calculated for each animal and each day by subtracting the tumor volume on the day of first treatment (staging day) from the tumor volume on the specified observation day. This allows calculating the tumor growth inhibition: ΔT/ΔC=(median delta T/median delta C)×100. Individual tumor volume changes from baseline are thereafter analyzed by a non-parametric two-way ANOVA-TYPE (with factors: group and repeated days) followed by a post-hoc contrasts analysis, with Bonferroni-Holm adjustment for multiplicity, comparing all treated groups to the control group. […] A probability less than 5% (p<0.05) was considered as significant.
Based on the National Cancer Institute (NCl) standards, a ΔT/ΔC≦40% is the minimal level required to declare activity.
The tumor doubling time (in days; Td) was estimated from the plot of the log linear growth of the control group tumors in exponential growth (100 to 1000 mm^3 range) [T. H. Corbett et al., Cancer, 40: 2660-2680 (1977); F. M. Schabel et al., Cancer Drug Development, Part B, Methods in Cancer Research, 17: 3-51, New York, Academic Press Inc. (1979)].
This efficacy may also be quantified by the number of tumor regressions observed after therapy. Individual mice reporting a tumor volume ≦50% of the Day 0 measurement for two consecutive measurements over a seven day period were considered partial responders (PR). Individual mice lacking palpable tumors (<4×4 mm^2 for two consecutive measurements over a seven day period) were classified as complete responders (CR); a CR that persisted until study completion was considered a tumor-free survivor (TFS).
The animals subjected to the experiment are subcutaneously grafted unilaterally with approximately 30 mg of a tumor fragment on day 0. The animals are implanted with a human tumor xenografted in immunocompromized mice. Several days post tumor implantation, mice are randomized according to their body weight to the different groups of treatments and controls. The animals are observed every day. […] The groups are then weighed once or twice a week until the end of the trial.
The tumors are measured 1 to 5 times a week, depending on the tumor doubling time, until the tumor reaches approximately 1,000 mm^3, or until the animal dies (if this occurs before the tumor reaches 1,000 mm^3). The animals are necropsied immediately after euthanasia or death.
The selected tumor model was a human rhabdomyosarcoma RH-30, xenografted in SCID mice [Douglass E C, et al. Cytogenet Cell Genet. 1987; 45(3-4):14855.].
Treatment solutions were prepared first by mixing 1 volume of ethanolic stock solution and 1 volume of polysorbate 80, then by adding 18 volumes of glucose 5% in water.

[1] = 3.5 mg/kg per injection (total 7.0) IV days 14
[2] = 5.6 mg/kg per injection (total 11.2) IV days 14
[3] = 5.6 mg/kg per injection (total 11.2) IV days 14, listed as CABAZITAXEL
[4] = 9.0 mg/kg per injection (total 18) IV days 14
[5] = 14.5 mg/kg per injection (total 29) IV days 14
[6] = 14.5 mg/kg per injection (total 29) IV days 14, listed as CABAZITAXEL

CO[C@H]1C(=O)[C@]2(C)[C@@H](OC)C[C@H]3OC[C@@]3(OC(C)=O)[C@H]2[C@H](OC(=O)c2ccccc2)[C@]2(O)C[C@H](OC(=O)[C@H](O)[C@@H](NC(=O)OC(C)(C)C)c3ccccc3)C(C)=C1C2(C)C [Cabazitaxel, 4α-acetoxy-2α-benzoyloxy-5β,20-epoxy-1β-hydroxy-7β,10β-dimethoxy-9-oxo-11-taxen-13α-yl (2R,3S)-3-tert-butoxycarbonyl-amino-2-hydroxy-3-phenylpropionate]
Average body weight change in % per mouse at nadir [1]: −10.1%
Drug death (Day of death) [1]: 0/6
Regressions Complete [1]: 0/6
Regressions Partial [1]: 0/6
Tumor free survivors at day 120 [1]: 0/6
day of nadir [1]: (24) day
ΔT/ΔC in % (day 27) [1]: 24%
Biological interpretation (3.5 mg/kg per injection (total 7.0) IV days 14, listed as CABAZITAXEL): Active
Biological interpretation (3.5 mg/kg per injection (total 7.0) IV days 14, listed as cabazitaxel): active
Tumor volume changes from baseline: Median (nMad) (3.5 mg/kg, day 18): 307 (35.6)
Tumor volume changes from baseline: Median (nMad) (3.5 mg/kg, day 22): 418 (258)
Tumor volume changes from baseline: Median (nMad) (3.5 mg/kg, day 29): 356.5
Average body weight change in % per mouse at nadir [2]: −15.3%
Drug death (Day of death) [2]: 0/6
Regressions Complete [2]: 2/6
Regressions Partial [2]: 5/6
Tumor free survivors at day 120 [2]: 0/6
day of nadir [2]: (28) day
Biological interpretation [3]: Highly
ΔT/ΔC in % (day 27) [3]: 0%
Biological interpretation (5.6 mg/kg per injection (total 11.2) IV days 14, listed as cabazitaxel): highly active
Tumor volume changes from baseline: Median (nMad) (5.6 mg/kg, day 18): 164 (30.4)
Tumor volume changes from baseline: Median (nMad) (5.6 mg/kg, day 19): 203 (80.1)
Tumor volume changes from baseline: Median (nMad) (5.6 mg/kg, day 20): 302.5
Tumor volume changes from baseline: Median (nMad) (5.6 mg/kg, day 22): 192.5
Tumor volume changes from baseline: Median (nMad) (5.6 mg/kg, day 27): 0 (130.5)
Tumor volume changes from baseline: Median (nMad) (5.6 mg/kg, day 29): 106 (147.5)
Tumor volume changes from baseline: Median (nMad) (5.6 mg/kg, day 33): −85 (117.1)
Tumor volume changes from baseline: Median (nMad) (5.6 mg/kg, day 39): −139 (113.4)
Tumor volume changes from baseline: Median (nMad) (5.6 mg/kg, day 41): −157 (113.4)
Tumor volume changes from baseline: Median (nMad) (5.6 mg/kg, day 43): −104.5
Tumor volume changes from baseline: Median (nMad) (5.6 mg/kg, day 35): −120 (98.6)
Average body weight change in % per mouse at nadir [4]: −8.0%
Biological interpretation [4]: very active
Drug death (Day of death) [4]: 0/6
Regressions Complete [4]: 6/6
Regressions Partial [4]: 6/6
Tumor free survivors at day 120 [4]: 5/6
day of nadir [4]: (25) day
ΔT/ΔC in % (day 27) [4]: 7%
Biological interpretation (9.0 mg/kg per injection (total 18) IV days 14, listed as CABAZITAXEL): Very
Tumor volume changes from baseline: Median (nMad) (9 mg/kg, day 18): 138.5
Tumor volume changes from baseline: Median (nMad) (9 mg/kg, day 29): 62.5 (91.9)
Tumor volume changes from baseline: Median (nMad) (9 mg/kg, day 33): −129 (142.3)
Tumor volume changes from baseline: Median (nMad) (9 mg/kg, day 39): −189.5
Tumor volume changes from baseline: Median (nMad) (9 mg/kg, day 41): −189.5
Tumor volume changes from baseline: Median (nMad) (9 mg/kg, day 43): −189.5
Tumor volume changes from baseline: Median (nMad) (9 mg/kg, day 35): −180 (94.9)
Average body weight change in % per mouse at nadir [5]: −15.0%
Drug death (Day of death) [5]: 0/6
Regressions Complete [5]: 6/6
Regressions Partial [5]: 6/6
Tumor free survivors at day 120 [5]: 6/6
day of nadir [5]: (24) day
Biological interpretation [6]: Highly
ΔT/ΔC in % (day 27) [6]: <0%
Biological interpretation (14.5 mg/kg per injection (total 29) IV days 14, listed as cabazitaxel): highly active
Tumor volume changes from baseline: Median (nMad) (14.5 mg/kg, day 29): −107 (150.5)
Tumor volume changes from baseline: Median (nMad) (14.5 mg/kg, day 33): −180 (66)
Tumor volume changes from baseline: Median (nMad) (14.5 mg/kg, day 46): −194 (74.1)
Tumor volume changes from baseline: Median (nMad) (14.5 mg/kg, day 50): −194 (74.1)
Tumor volume changes from baseline: Median (nMad) (14.5 mg/kg, day 35): −194 (74.1)
Tumor volume changes from baseline: Median (nMad) (14.5 mg/kg, day 39): −194 (74.1)
Tumor volume changes from baseline: Median (nMad) (14.5 mg/kg, day 41): −194 (74.1)
Tumor volume changes from baseline: Median (nMad) (14.5 mg/kg, day 43): −194 (74.1)
antitumor activity compared with docetaxel (conclusion of example 1): more active than docetaxel
